Experimental data from patent US20260015350A1, “AZAQUINAZOLINE PAN-KRAS INHIBITORS” (Mirati Therapeutics, Inc., priority 2022, published 2026).

Columns and labels:
[1] = tested on: KRas-mediated phosphorylation of ERK in A549 cells; test: Inhibition of KRas-mediated phosphorylation of ERK (Cisbio HTRF pERK), A549 cells; assay type: cell-based; conditions: Homo sapiens; for IC50: HTRF pERK; for inhibition at 0.1 µM: A549, 3 h, single point, 100 nM compound, 3 hrs
Method in brief: (§1)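 Compound treatment lasts 3 hrs on 6,000 seeded cells, testing 10 doses from a 10 uM top concentration in 3-fold decrements at 0.8% final DMSO. Trametinib at 0.2 uM defines the Min signal. Detection is HTRF on cold-lysed cell extracts.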

[2] = target: T1, KRas^WT (Homo sapiens, UniProt P01116); test: KRas binding assay (TR-FRET tracer displacement), KRas WT; conditions: for IC50: TR-FRET tracer displacement, KRas WT; for inhibition at 0.01 µM: single point, 10 nM compound, TR-FRET
T1 construct: Biotinylated KRas (corresponding to amino acids 1-169, produced at Accelegan Inc.); biotin (biotinylated); purchased Accelegan Inc

[3] = target: T2, KRas^G13D (Homo sapiens, UniProt P01116, G13D); test: KRas binding assay (TR-FRET tracer displacement), KRas G13D; conditions: for IC50: TR-FRET tracer displacement, KRas G13D; for inhibition at 0.01 µM: single point, 10 nM compound, TR-FRET
T2 construct: Biotinylated KRas (corresponding to amino acids 1-169, produced at Accelegan Inc.); biotin (biotinylated); purchased Accelegan Inc

[4] = tested on: KRas-mediated phosphorylation of ERK in H727 cells; test: Inhibition of KRas-mediated phosphorylation of ERK (Cisbio HTRF pERK), H727 cells; assay type: cell-based; conditions: Homo sapiens, NCI-H727, H727 cells; HTRF pERK
Method in brief: as §1

[5] = tested on: KRas-mediated phosphorylation of ERK in H358 cells; test: Inhibition of KRas-mediated phosphorylation of ERK (Cisbio HTRF pERK), H358 cells; assay type: cell-based; conditions: Homo sapiens; for IC50: NCI-H358, HTRF pERK; for inhibition at 0.1 µM: NCI-H358, 3 h, single point, 100 nM compound, 3 hrs
Method in brief: as §1

[6] = target: T3, KRas^Q61H (Homo sapiens, UniProt P01116, Q61H); test: KRas binding assay (TR-FRET tracer displacement), KRas Q61H; conditions: for IC50: TR-FRET tracer displacement, KRas Q61H; for inhibition at 0.01 µM: single point, 10 nM compound, TR-FRET
T3 construct: Biotinylated KRas (corresponding to amino acids 1-169, produced at Accelegan Inc.); biotin (biotinylated); purchased Accelegan Inc

[7] = target: T4, KRas^G12R (Homo sapiens, UniProt P01116, G12R); test: KRas binding assay (TR-FRET tracer displacement), KRas G12R
T4 construct: Biotinylated KRas (corresponding to amino acids 1-169, produced at Accelegan Inc.); biotin (biotinylated); purchased Accelegan Inc

[8] = tested on: KRas-mediated phosphorylation of ERK in HCT116 cells; test: Inhibition of KRas-mediated phosphorylation of ERK (Cisbio HTRF pERK), HCT116 cells; assay type: cell-based; conditions: Homo sapiens; for IC50: HCT-116, HTRF pERK; for inhibition at 0.1 µM: HCT-116, 3 h, single point, 100 nM compound, 3 hrs
Method in brief: as §1

[9] = target: T5, KRas^G12D (Homo sapiens, UniProt P01116, G12D); test: KRas binding assay (TR-FRET tracer displacement), KRas G12D
T5 construct: Biotinylated KRas (corresponding to amino acids 1-169, produced at Accelegan Inc.); biotin (biotinylated); purchased Accelegan Inc

[10] = tested on: KRas-mediated phosphorylation of ERK in MKN1 cells; test: Inhibition of KRas-mediated phosphorylation of ERK (Cisbio HTRF pERK), MKN1 cells; assay type: cell-based; conditions: Homo sapiens, MKN-1
Method in brief: (§2)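 Phospho-ERK is quantified by HTRF with the Advanced pERK kit. Cells go in at 6,000/well in RPMI plus 10% FBS overnight at 37° C. under 5% CO2, with a 4-hour covered room-temperature incubation ahead of the read.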

[11] = tested on: KRas-mediated phosphorylation of ERK in PSN1 cells; test: Inhibition of KRas-mediated phosphorylation of ERK (Cisbio HTRF pERK), PSN1 cells; assay type: cell-based; conditions: Homo sapiens
Method in brief: as §2

[12] = target: T6, KRas^G12C (Homo sapiens, UniProt P01116, G12C); test: KRas binding assay (TR-FRET tracer displacement), KRas G12C; conditions: for IC50: TR-FRET tracer displacement, KRas G12C; for inhibition at 0.01 µM: single point, 10 nM compound, TR-FRET
T6 construct: Biotinylated KRas (corresponding to amino acids 1-169, produced at Accelegan Inc.); biotin (biotinylated); purchased Accelegan Inc

[13] = target: T7, KRas^G12A (Homo sapiens, UniProt P01116, G12A); test: KRas binding assay (TR-FRET tracer displacement), KRas G12A; conditions: for IC50: TR-FRET tracer displacement, KRas G12A; for inhibition at 0.01 µM: single point, 10 nM compound, TR-FRET
T7 construct: Biotinylated KRas (corresponding to amino acids 1-169, produced at Accelegan Inc.); biotin (biotinylated); purchased Accelegan Inc

[14] = target: T8, KRas^G12S (Homo sapiens, UniProt P01116, G12S); test: KRas binding assay (TR-FRET tracer displacement), KRas G12S; conditions: for IC50: TR-FRET tracer displacement, KRas G12S; for inhibition at 0.01 µM: single point, 10 nM compound, TR-FRET
T8 construct: Biotinylated KRas (corresponding to amino acids 1-169, produced at Accelegan Inc.); biotin (biotinylated); purchased Accelegan Inc

[15] = target: T9, KRas^G12V (Homo sapiens, UniProt P01116, G12V); test: KRas binding assay (TR-FRET tracer displacement), KRas G12V
T9 construct: Biotinylated KRas (corresponding to amino acids 1-169, produced at Accelegan Inc.); biotin (biotinylated); purchased Accelegan Inc

[16] = tested on: KRas-mediated phosphorylation of ERK in H460 cells; test: Inhibition of KRas-mediated phosphorylation of ERK (Cisbio HTRF pERK), H460 cells; assay type: cell-based; conditions: Homo sapiens; for IC50: NCI-H460, HTRF pERK; for inhibition at 0.1 µM: NCI-H460, 3 h, single point, 100 nM compound, 3 hrs
Method in brief: as §1

[17] = tested on: KRas-mediated phosphorylation of ERK in AsPC-1 cells; test: Inhibition of KRas-mediated phosphorylation of ERK (Cisbio HTRF pERK), AsPC-1 cells; assay type: cell-based; conditions: Homo sapiens, ASPC1, AsPC-1 cells; HTRF pERK
Method in brief: as §1

T4 sequence (P01116 1-169 isoform P01116-2 G12R): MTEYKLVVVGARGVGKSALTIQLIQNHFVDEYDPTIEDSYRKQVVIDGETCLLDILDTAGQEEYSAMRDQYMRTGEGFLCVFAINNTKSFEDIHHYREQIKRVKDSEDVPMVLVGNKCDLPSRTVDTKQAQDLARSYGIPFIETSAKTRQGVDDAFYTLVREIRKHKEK
T9 sequence (P01116 1-169 isoform P01116-2 G12V): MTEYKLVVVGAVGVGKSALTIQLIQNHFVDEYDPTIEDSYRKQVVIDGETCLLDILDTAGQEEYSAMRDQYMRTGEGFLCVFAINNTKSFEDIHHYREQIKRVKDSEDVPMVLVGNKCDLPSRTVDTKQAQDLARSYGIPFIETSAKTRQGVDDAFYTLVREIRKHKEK
T3 sequence (P01116 1-169 isoform P01116-2 Q61H): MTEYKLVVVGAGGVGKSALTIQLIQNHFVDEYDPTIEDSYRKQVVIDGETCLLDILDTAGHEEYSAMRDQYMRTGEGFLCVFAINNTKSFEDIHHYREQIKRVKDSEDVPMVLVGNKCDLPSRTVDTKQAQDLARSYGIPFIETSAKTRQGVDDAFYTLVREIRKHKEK
T8 sequence (P01116 1-169 isoform P01116-2 G12S): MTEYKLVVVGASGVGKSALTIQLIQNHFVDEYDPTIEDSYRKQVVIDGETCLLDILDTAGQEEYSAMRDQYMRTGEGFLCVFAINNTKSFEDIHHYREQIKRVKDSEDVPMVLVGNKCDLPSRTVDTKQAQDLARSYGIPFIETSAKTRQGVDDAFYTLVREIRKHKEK
T2 sequence (P01116 1-169 isoform P01116-2 G13D): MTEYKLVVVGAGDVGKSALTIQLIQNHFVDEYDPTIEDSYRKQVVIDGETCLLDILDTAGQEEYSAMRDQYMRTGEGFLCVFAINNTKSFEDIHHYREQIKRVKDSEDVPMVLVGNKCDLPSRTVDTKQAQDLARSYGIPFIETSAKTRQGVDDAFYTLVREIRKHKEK
T6 sequence (P01116 1-169 isoform P01116-2 G12C): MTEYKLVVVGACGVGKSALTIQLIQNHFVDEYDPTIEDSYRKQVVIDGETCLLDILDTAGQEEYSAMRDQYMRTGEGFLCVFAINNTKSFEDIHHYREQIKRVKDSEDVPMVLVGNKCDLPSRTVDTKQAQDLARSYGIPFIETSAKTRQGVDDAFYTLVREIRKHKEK
T7 sequence (P01116 1-169 isoform P01116-2 G12A): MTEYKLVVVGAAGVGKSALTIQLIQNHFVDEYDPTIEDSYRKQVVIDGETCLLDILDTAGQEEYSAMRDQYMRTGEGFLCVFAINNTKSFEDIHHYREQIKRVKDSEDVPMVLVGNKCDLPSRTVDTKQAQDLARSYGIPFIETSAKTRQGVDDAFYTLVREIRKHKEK
T1 sequence (P01116 1-169 isoform P01116-2): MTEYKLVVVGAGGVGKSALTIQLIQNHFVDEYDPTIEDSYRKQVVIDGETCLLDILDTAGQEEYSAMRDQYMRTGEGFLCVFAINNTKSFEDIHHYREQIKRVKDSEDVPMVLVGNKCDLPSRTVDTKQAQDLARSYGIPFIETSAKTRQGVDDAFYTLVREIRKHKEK
T5 sequence (P01116 1-169 isoform P01116-2 G12D): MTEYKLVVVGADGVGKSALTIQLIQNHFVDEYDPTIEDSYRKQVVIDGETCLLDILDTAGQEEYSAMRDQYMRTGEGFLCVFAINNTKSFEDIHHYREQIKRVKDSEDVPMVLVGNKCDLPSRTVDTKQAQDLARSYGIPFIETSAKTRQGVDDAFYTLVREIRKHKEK

IC50 [1] [nM]	IC50 [2] [nM]	IC50 [3] [nM]	IC50 [4] [nM]	IC50 [5] [nM]	IC50 [6] [nM]	IC50 [7] [nM]	IC50 [8] [nM]	IC50 [9] [nM]	IC50 [10] [nM]	IC50 [11] [nM]	IC50 [12] [nM]	IC50 [13] [nM]	IC50 [14] [nM]	IC50 [15] [nM]	IC50 [16] [nM]	IC50 [17] [nM]	Compound	inhibition at 0.1 µM [1] [%]	inhibition at 0.1 µM [5] [%]	other results
3330	15	25	654	258	21	7	3440	< 2	5	> 10000	6	12	6	3	1720	444	CCc1cccc2cc3[nH]ncc3c(-c3ncc4c(N5CCCn6nc(C(=O)N(C)C)cc6C5)nc(OC[C@@]56CCCN5C[C@H](F)C6)nc4c3F)c12 [Example 770, 5-(7-(5-ethyl-1H-benzo[f]indazol-4-yl)-8-fluoro-2-(((2R,7aS)-2-fluorohexahydro-1H-pyrrolizin-7a-yl)methoxy)pyrido[4,3-d]pyrimidin-4-yl)-N,N-dimethyl-5,6,7,8-tetrahydro-4H-pyrazolo[1,5-a][1,4]diazepine-2-carboxamide]	-1	12	inhibition at 0.1 µM [8]: 10%; inhibition at 0.1 µM [16]: -1%
176	11	7	196	100	12	12	520	5	24	> 10000	7	9	8	6	176	153	C[C@@]1(O)CCCN(c2nc(OC[C@@]34CCCN3C[C@H](F)C4)nc3c(F)c(-c4c(C5CC5)c(Cl)cc5[nH]ncc45)ncc23)C1 [Example 880, (3R)-1-(7-(6-chloro-5-cyclopropyl-1H-indazol-4-yl)-8-fluoro-2-(((2R,7aS)-2-fluorotetrahydro-1H-pyrrolizin-7a(5H)-yl)methoxy)pyrido[4,3-d]pyrimidin-4-yl)-3-methylpiperidin-3-ol]			
> 10000	13	15	1300	429	15	8	7110	2	521	> 10000	5	9	5	3	4460	677	CN(C)C(=O)c1cc2n(n1)CCCN(c1nc(OC[C@@]34CCCN3C[C@H](F)C4)nc3c(F)c(-c4c(C5CC5)c(Cl)cc5[nH]ncc45)ncc13)C2 [Example 882, 5-(7-(6-chloro-5-cyclopropyl-1H-indazol-4-yl)-8-fluoro-2-(((2R,7aS)-2-fluorotetrahydro-1H-pyrrolizin-7a(5H)-yl)methoxy)pyrido[4,3-d]pyrimidin-4-yl)-N,N-dimethyl-5,6,7,8-tetrahydro-4H-pyrazolo[1,5-a][1,4]diazepine-2-carboxamide]			

Second part, the compound before the results:

Compound	IC50 [1] [nM]	IC50 [2] [nM]	IC50 [3] [nM]	IC50 [4] [nM]	IC50 [5] [nM]	IC50 [6] [nM]	IC50 [7] [nM]	IC50 [8] [nM]	IC50 [9] [nM]	IC50 [10] [nM]	IC50 [11] [nM]	IC50 [12] [nM]	IC50 [13] [nM]	IC50 [14] [nM]	IC50 [15] [nM]	IC50 [16] [nM]	IC50 [17] [nM]	inhibition at 0.1 µM [1] [%]	inhibition at 0.1 µM [5] [%]	other results
CCc1cccc2cc3[nH]ncc3c(-c3ncc4c(N5CCCC6(CNC(=O)N6)C5)nc(OC[C@@]56CCCN5C[C@H](F)C6)nc4c3F)c12 (stereo partly drawn) [Example 769, 7-(7-(5-ethyl-1H-benzo[f]indazol-4-yl)-8-fluoro-2-(((2R,7aS)-2-fluorohexahydro-1H-pyrrolizin-7a-yl)methoxy)pyrido[4,3-d]pyrimidin-4-yl)-1,3,7-triazaspiro[4.5]decan-2-one]	2190	< 2	< 2	567	88	< 2	< 2	1240	< 2	226	> 10000	< 2	< 2	< 2	< 2	661	510			
Oc1cc(-c2ncc3c(N4CCCC5(CCO5)C4)nc(OC[C@@]45CCCN4C[C@H](F)C5)nc3c2F)c2c(Cl)c(F)ccc2c1 (stereo partly drawn) [Example 773, 5-chloro-6-fluoro-4-(8-fluoro-2-(((2R,7aS)-2-fluorotetrahydro-1H-pyrrolizin-7a(5H)-yl)methoxy)-4-(1-oxa-6-azaspiro[3.5]nonan-6-yl)pyrido[4,3-d]pyrimidin-7-yl)naphthalen-2-ol]	8			8	3		2	18	3	4	2680				< 2	10	7	97	99	inhibition at 0.01 µM [2]: 90%; inhibition at 0.01 µM [3]: 94%; inhibition at 0.01 µM [6]: 95%; inhibition at 0.1 µM [8]: 90%; inhibition at 0.01 µM [12]: 95%; inhibition at 0.01 µM [13]: 86%; inhibition at 0.01 µM [14]: 92%; inhibition at 0.1 µM [16]: 96%
CCc1c(F)ccc2cc3[nH]ncc3c(-c3ncc4c(N5CCC[C@@](C)(O)C5)nc(OC[C@@]56CCCN5C[C@H](F)C6)nc4c3F)c12 [Example 776, (3R)-1-(7-(5-ethyl-6-fluoro-1H-benzo[f]indazol-4-yl)-8-fluoro-2-(((2R,7aS)-2-fluorohexahydro-1H-pyrrolizin-7a-yl)methoxy)pyrido[4,3-d]pyrimidin-4-yl)-3-methylpiperidin-3-ol]	18			61	18		4	75	2	16	9010				2	29	18	60	84	inhibition at 0.01 µM [2]: 78%; inhibition at 0.01 µM [3]: 84%; inhibition at 0.01 µM [6]: 80%; inhibition at 0.01 µM [12]: 85%; inhibition at 0.01 µM [13]: 80%; inhibition at 0.01 µM [14]: 83%
C#Cc1c(F)ccc2cc(O)cc(-c3ncc4c(N5CCC[C@@](C)(O)C5)nc(OC[C@@]56CCCN5[C@@H](CO)CC6)nc4c3F)c12 [Example 809, (R)-1-(7-(8-ethynyl-7-fluoro-3-hydroxynaphthalen-1-yl)-8-fluoro-2-(((3R,7aS)-3-(hydroxymethyl)tetrahydro-1H-pyrrolizin-7a(5H)-yl)methoxy)pyrido[4,3-d]pyrimidin-4-yl)-3-methylpiperidin-3-ol]	2560	5	3	809	228	5	5	1510	3	57	> 10000	3	5	4	4	918	871			
C[C@@]1(O)CCCN(c2nc(OCC34CCCN3CCC4)nc3c(F)c(-c4c(C5CC5)c(Cl)cc5[nH]ncc45)ncc23)C1 [Example 876, (3R)-1-(7-(6-chloro-5-cyclopropyl-1H-indazol-4-yl)-8-fluoro-2-((tetrahydro-1H-pyrrolizin-7a(5H)-yl)methoxy)pyrido[4,3-d]pyrimidin-4-yl)-3-methylpiperidin-3-ol]	1040	17	10	1560	234	18	22	1130	10	112	> 10000	9	14	13	11	561	661			
